Tests used:
[1] = molecular target: T1, GppNHp-loaded KRAS4b (amino acids 1-169) G12C/C118S protein (Homo sapiens, UniProt P01116, C118S/G12C); experiment: Covalent cysteine 12 modification by MALDI-TOF MS, GppNHp-loaded KRAS G12C; assay type: binding; details: 15 minutes reaction time point
T1 construct: KRAS4b (amino acids 1-169) G12C/C118S protein; made in house
Summary of the method: (§1)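 1 μM protein + cpd (1:2.5), HEPES 20 mM/NaCl 150 mM/MgCl2 1 mM pH 7.3, RT, dark, 15 min. Linear MALDI-TOF, sinapinic acid matrix. % mod = modified/(modified + unmodified) peak height.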

[2] = molecular target: T2, GTP-loaded KRAS4b (amino acids 1-169) G12C/C118S protein (Homo sapiens, UniProt P01116, C118S/G12C); experiment: Covalent cysteine 12 modification by MALDI-TOF MS, GTP-loaded KRAS G12C; assay type: binding; details: 15 minutes reaction time point
T2 construct: KRAS4b (amino acids 1-169) G12C/C118S protein; made in house
Summary of the method: as §1

[3] = molecular target: T3, GDP-loaded KRAS4b (amino acids 1-169) G12C/C118S protein (Homo sapiens, UniProt P01116, C118S/G12C); experiment: Covalent cysteine 12 modification by MALDI-TOF MS, GDP-loaded KRAS G12C; assay type: binding; details: 15 minutes reaction time point
T3 construct: KRAS4b (amino acids 1-169) G12C/C118S protein; made in house
Summary of the method: as §1

pERK in NCI-H358 cells = experiment: Cell-based pERK HTRF assay (pERK inhibition in H358 cells); details: Homo sapiens, NCI-H358, 0.5 h, 30 min incubation
Summary of the method: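 NCI-H358 cells were seeded at 4×10^4 cells/well in RPMI/10% FBS, then treated next day for 30 min at 0.25% DMSO (9-point, 3-fold series from 75 μM). Lysates were read by HTRF (d2/Eu cryptate antibody pair, 615 nm emission) after 4–24 h at room temperature to give pERK IC50.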

| GppNHp-KRAS G12C percent of modification [1] | GTP-KRAS G12C percent of modification [2] | GDP-KRAS G12C percent of modification [3] | IC50 (pERK in NCI-H358 cells) [nM] | Compound |
| --- | --- | --- | --- | --- |
| A (percent of modification ≥70%) | A (percent of modification ≥70%) | A (percent of modification ≥70%) | 100 to 1000 | C=CC(=O)N1CC[C@@H](N(C)c2nc(OC[C@@]34CCCN3C[C@H](F)C4)nc3c(F)c(-c4nc(N)cc(C)c4C(F)(F)F)ccc23)[C@H]1C [Compound 115] |
| A (percent of modification ≥70%) | B (50≤percent of modification <70%) | A (percent of modification ≥70%) | 100 to 1000 | C=CC(=O)N1CC[C@@H](N(C)c2nc(OC[C@@H]3CCCN3C)nc3c(F)c(-c4nc(N)cc(C)c4C(F)(F)F)c(C(F)(F)F)cc23)[C@H]1C [Compound 122] |
| A (percent of modification ≥70%) | A (percent of modification ≥70%) | A (percent of modification ≥70%) | < 100 | C=CC(=O)N1CC[C@@H](N(CC)c2nc(OC[C@@H]3CCCN3C)nc3cc(-c4ccc(F)c5sc(N)c(C#N)c45)c(F)cc23)[C@H]1C [Compound 138] |
| A (percent of modification ≥70%) | A (percent of modification ≥70%) | A (percent of modification ≥70%) | 100 to 1000 | C=CC(=O)N1CC[C@@H](N(CC)c2nc(OC[C@@H]3C[C@@H](F)CN3C)nc3cc(-c4ccc(F)c5sc(N)c(C#N)c45)c(F)cc23)[C@H]1C [Compound 139] |
| A (percent of modification ≥70%) | A (percent of modification ≥70%) | A (percent of modification ≥70%) | < 100 | C=CC(=O)N1CC[C@@H](N(CC)c2nc(OC[C@@H]3C[C@@H](OC)CN3C)nc3cc(-c4ccc(F)c5sc(N)c(C#N)c45)c(F)cc23)[C@H]1C [Compound 140] |
| A (percent of modification ≥70%) | A (percent of modification ≥70%) | A (percent of modification ≥70%) | < 100 | C=CC(=O)N1CC[C@@H](N(CC)c2nc(OC[C@@H]3CCCN3C)nc3c(F)c(-c4ccc(F)c5sc(N)c(C#N)c45)ccc23)[C@H]1C [Compound 141] |
| A (percent of modification ≥70%) | A (percent of modification ≥70%) | A (percent of modification ≥70%) | < 100 | C=CC(=O)N1CC[C@@H](N(CC)c2nc(OC[C@@H]3C[C@@H](F)CN3C)nc3c(F)c(-c4ccc(F)c5sc(N)c(C#N)c45)ccc23)[C@H]1C [Compound 142] |
| C (10%≤percent of modification <50%) | C (10%≤percent of modification <50%) | C (10%≤percent of modification <50%) | < 100 | C=CC(=O)N1CC[C@@H](N(C)c2nc(OC[C@@H]3C[C@@H](F)CN3CC)nc3c(F)c(-c4ccc(F)c5sc(N)c(C#N)c45)c(C(F)(F)F)cc23)[C@@H]1C [Compound 144] |
| B (50≤percent of modification <70%) | C (10%≤percent of modification <50%) | A (percent of modification ≥70%) | 100 to 1000 | C=CC(=O)N1CC[C@@H](N(C)c2nc(OC[C@@H]3C[C@@H](F)CN3C)nc3c(F)c(-c4nc(N)cc(C)c4C(F)(F)F)c(C(F)(F)F)cc23)[C@H]1C [Compound 145] |
| A (percent of modification ≥70%) | A (percent of modification ≥70%) | A (percent of modification ≥70%) | < 100 | C=CC(=O)N1C[C@H](N(C)c2nc(OC[C@@H]3CCCN3C)nc3c(F)c(-c4ccc(F)c5sc(N)c(C#N)c45)c(C(F)(F)F)cc23)C[C@H]1C [Compound 147] |
| A (percent of modification ≥70%) | A (percent of modification ≥70%) | A (percent of modification ≥70%) | < 100 | C=CC(=O)N1C[C@H](N(C)c2nc(OC[C@@]34CCCN3C[C@H](F)C4)nc3cc(-c4ccc(F)c5sc(N)c(C#N)c45)c(F)cc23)C[C@H]1C [Compound 148] |
| A (percent of modification ≥70%) | A (percent of modification ≥70%) | A (percent of modification ≥70%) | < 100 | C=CC(=O)N1CC[C@@H](N(CC)c2nc(OC[C@@]34CCCN3C[C@H](OC)C4)nc3cc(-c4ccc(F)c5sc(N)c(C#N)c45)c(F)cc23)[C@H]1C [Compound 149] |
| A (percent of modification ≥70%) | A (percent of modification ≥70%) | A (percent of modification ≥70%) | < 100 | C=CC(=O)N1CC[C@@H](N(CC)c2nc(OC[C@@]34CCCN3C[C@H](OC)C4)nc3c(F)c(-c4ccc(F)c5sc(N)c(C#N)c45)c(C(F)(F)F)cc23)[C@H]1C [Compound 150] |
| A (percent of modification ≥70%) | A (percent of modification ≥70%) | A (percent of modification ≥70%) | < 100 | C=CC(=O)N1C[C@H](N(C)c2nc(OC[C@@H]3CCCN3C)nc3c(F)c(-c4ccc(F)c5sc(N)c(C#N)c45)c(C(F)(F)F)cc23)C[C@@H]1C [Compound 153] |
| C (10%≤percent of modification <50%) | C (10%≤percent of modification <50%) | C (10%≤percent of modification <50%) | < 100 | C=CC(=O)N1CC[C@@H](N(CC)c2nc(OC[C@@H]3CCCN3C)nc3c(F)c(-c4nc(N)cc(C)c4C(F)(F)F)c(C(F)(F)F)cc23)[C@H]1C [Compound 155] |
| A (percent of modification ≥70%) | A (percent of modification ≥70%) | A (percent of modification ≥70%) | < 100 | C=CC(=O)N1CC[C@@H](N(C)c2nc(OC[C@]34CCCN3C[C@H](OC)C4)nc3c(F)c(-c4ccc(F)c5sc(N)c(C#N)c45)c(C(F)(F)F)cc23)[C@H]1C [Compound 156] |
| A (percent of modification ≥70%) | B (50≤percent of modification <70%) | A (percent of modification ≥70%) | < 100 | C=CC(=O)N1CC[C@@H](N(CC)c2nc(OC[C@]34CCCN3C[C@H](OC)C4)nc3c(F)c(-c4ccc(F)c5sc(N)c(C#N)c45)c(C(F)(F)F)cc23)[C@H]1C [Compound 158] |
| A (percent of modification ≥70%) | B (50≤percent of modification <70%) | A (percent of modification ≥70%) | < 100 | C=CC(=O)N1CC[C@@H](N(CC)c2nc(OC[C@]34CCCN3C[C@H](F)C4)nc3c(F)c(-c4ccc(F)c5sc(N)c(C#N)c45)c(C(F)(F)F)cc23)[C@H]1C [Compound 159] |

Source: US20260232666A1, “COMPOSITIONS AND METHODS FOR INHIBITION OF RAS” (TheRas, Inc., priority 2023, published 2026)
